Test results: patent EP3964206A1, “COMPOUNDS FOR THE TREATMENT OF COVID-19” (priority 2020, dated 2022)
Where a name gives a salt, the structure may show the parent alone. Peptide text beside a SMILES is read from it. * marks the point of attachment. Cbz = O=C(OCc1ccccc1)*

Test system: SARS-CoV-2
Test: microbe, parasite or virus in culture
Assay type: cell-based
Conditions: Severe acute respiratory syndrome coronavirus 2, 120 h; for Emax: read-out: Maximum confluence reached (%)

`CCCCN(CCCC)CCC(O)c1cc2c(Cl)cc(Cl)cc2c2cc(C(F)(F)F)ccc12` (racemic) [Compound 40, (±)-1,3-Dichloro-9-[3-(dibutylamino)-1-hydroxypropyl]-6-(trifluoromethyl)phenanthrene hydrochloride] was tested, and the Emax was 51.8%.

`CCC(C/C=C/c1ccccc1)(c1ccccc1)N(C)CC1CC1` (single isomer, unassigned; (+)) [Compound 89, (+)-N-(Cyclopropylmethyl)-N-[1-ethyl-1,4-diphenyl-3(E)-butenyl]-N-methylamine] was tested, and the IC50 was 11.2 µM and the Emax was 58.3%.

`CN(Cc1cnc2nc(N)nc(N)c2n1)c1ccc(C(=O)N[C@@H](CCC(=O)O)C(=O)O)cc1` [Compound 1, N-[4-[N-(2,4-Diaminopteridin-6-ylmethyl)-N-methylamino]benzoyl]-L-glutamic acid] showed an IC50 of 0.05 µM and an Emax of 64%.

Compound `COc1cc(NCc2ccc3nc(N)nc(N)c3c2C)cc(OC)c1OC` [Compound 2, 2,4-Diamino-5-methyl-6-[(3,4,5-trimethoxyanilino)methyl]quinazoline] has an Emax of 78.2%.

`Nc1nc(N)c2nc(CNc3ccc(C(=O)N[C@@H](CCC(=O)O)C(=O)O)cc3)cnc2n1` [Compound 10, N-[4-(2,4-diamino-6-pteridinylmethylamino)benzolyl]-L-glutamic acid] gave an Emax of 72.5%.

`CN(C)c1cccc(-c2c3c(=O)n(-c4ccccc4Cl)[nH]c3cc(=O)n2C)c1` [Compound 13, 2-(2-Chlorophenyl)-4-[3-(dimethylamino)phenyl]-5-methyl-1H-pyrazolo[4,3-c]pyridine-3,6(2H,5H)-dione] was tested, and the IC50 was 7.57 µM and the Emax was 102%.

For `Nc1ncc(-c2ccnc(Nc3ccncc3)n2)c(CC2CC2)n1` [Compound 20, 4'-(Cyclopropylmethyl)-N2-(pyridin-4-yl)-4,5'-bipyrimidine-2,2'-diamine], the Emax was 98.2%.

`C/C(=C\c1ccc(C(=O)O)cc1)c1ccc2c(c1)C(C)(C)CCC2(C)C` [Compound 26, 4-[2-(5,5,8,8-Tetramethyl-5,6,7,8-tetrahydronaphthalen-2-yl)-1(E)-propenyl]benzoic acid] showed an IC50 of 33.7 µM and an Emax of 106%.

In the case of `Cc1c(O)cccc1C(=O)N[C@@H](CSc1ccccc1)[C@H](O)CN1C[C@H]2CCCC[C@H]2C[C@H]1C(=O)NC(C)(C)C` [Compound 31, (3S,4aS,8aS)-N-tert-Butyl-2-[2(R)-hydroxy-3(R)-(3-hydroxy-2-methylbenzamido)-4-(phenylsulfanyl)butyl]perhydroisoquinoline-3-carboxamide methanesulfonate], the Emax is reported as 59.5%.

Work on `c1cncc(CN2CCC(n3ncc4c(N5CCOCC5)nc(-c5ccc6[nH]ccc6c5)nc43)CC2)c1` [Compound 32, 6-(1H-Indol-5-yl)-4-(4-morpholinyl)-1-[1-(pyridin-3-ylmethyl)piperidin-4-yl]-1H-pyrazolo[3,4-d]pyrimidine] yielded an Emax of 67.7%.

With `COc1ccc2c(c1)[C@]1(C[C@H]1c1ccc3c(/C=C/c4ccc(CN5C[C@@H](C)O[C@@H](C)C5)cc4)n[nH]c3c1)C(=O)N2` [Compound 33, (1R,2S)-2-[3-[(E)-2-[4-[(cis-2,6-Dimethylmorpholin-4-yl)methyl]phenyl]vinyl]-1H-indazol-6-yl]-5'-methoxyspiro[cyclopropane-1,3'-indol]-2'(1'H)-one (2E)-but-2-enedioate] the Emax was 105%.

`CNCc1ccc(-c2cc(-c3nc(-c4ccc(S(=O)(=O)C(C)C)cc4)cnc3N)on2)cc1` [Compound 34, 3-[3-[4-[(Methylamino)methyl]phenyl]-1,2-oxazol-5-yl]-5-[4-(propan-2-ylsulfonyl)phenyl]pyrazin-2-amine] was tested, and the Emax was 99.2%.

Work on `COc1cc2c(N3CCN(C(=O)Nc4ccc(OC(C)C)cc4)CC3)ncnc2cc1OCCCN1CCCCC1` [Compound 35, N-(4-Isopropoxyphenyl)-4-[6-methoxy-7-[3-(1-piperidinyl)propoxy]quinazolin-4-yl]piperazine-1-carboxamide] yielded an Emax of 80.1%.

`CN1[C@@H]2CC[C@H]1C[C@@H](OC(=O)c1cc(Cl)cc(Cl)c1)C2` [Compound 36, 3,5-Dichlorobenzoic acid endo-8-methyl-8-azabicyclo[3.2.1]oct-3-yl ester] showed an IC50 of 43.9 µM and an Emax of 69%.

`CC1=NN(c2ccc(C)c(C)c2)C(=O)/C1=N\Nc1cccc(-c2cccc(C(=O)O)c2)c1O` [Compound 37, 3'-[2(Z)-[1-(3,4-Dimethylphenyl)-3-methyl-5-oxo-4,5-dihydro-1H-pyrazol-4-ylidene]hydrazino]-2'-hydroxybiphenyl-3-carboxylic acid] was tested, and the IC50 was 58.1 µM and the Emax was 63.2%.

`CC(=O)[C@]1(O)Cc2c(O)c3c(c(O)c2[C@@H](O[C@H]2C[C@H](N)[C@H](O)[C@H](C)O2)C1)C(=O)c1ccccc1C3=O` [Compound 38, (7S,9S)-9-Acetyl-7-[(3-amino-2,3,6-trideoxy-alpha-L-lyxo-hexopyranosyl)oxy]-7,8,9,10-tetrahydro-6,9,11-trihydroxy-5,12-naphthacenedione hydrochloride] was tested, and the Emax was 92.6%.

With `Cc1nc(N)nc(N)c1-c1ccc(Cl)c(Cl)c1` [Compound 41, 5-(3,4-Dichlorophenyl)-6-methylpyrimidine-2,4-diamine] the Emax was 58%.

For `O=C(CCCN1CCC2(CC1)C(=O)N(Cc1cccc(F)c1)CN2c1ccccc1)c1ccc(F)cc1` [Compound 46, 3-[(3-fluorophenyl)methyl]-8-[4-(4-fluorophenyl)-4-oxobutyl]-1-phenyl-1,3,8-triazaspiro[4.5]decan-4-one], the Emax was 43%.

In the case of `CC(C)c1cnn2c(NCc3ccccc3)cc(NCCCCCCN)nc12` [Compound 48, N5-(6-Aminohexyl)-N7-benzyl-3-isopropylpyrazolo[1,5-a]pyrimidine-5,7-diamine], the Emax is reported as 47.3%.

Work on `NC(=NC1C2CC3CC(C2)CC1C3)Nc1ccc(I)cc1` (stereo not shown) [Compound 49, 2-(2-adamantyl)-1-(4-iodophenyl)guanidine] yielded an Emax of 81.8%.

In the case of `Cc1ccc(NC(=O)c2ccc(CN3CCN(C)CC3)cc2)cc1Nc1nc(-c2cccnc2)cs1` [Compound 50, 4-[(4-methylpiperazin-1-yl)methyl]-N-[4-methyl-3-[(4-pyridin-3-yl-1,3-thiazol-2-yl)amino]phenyl]benzamide], the Emax is reported as 57.1%.

`CC1(N2CCC(n3c([C@@H]4CCCNC4)nc4ccccc43)CC2)CCCCCCC1` [Compound 51, 1-[1-(1-Methylcyclooctyl)piperidin-4-yl]-2-[3(R)-piperidinyl]-1H-benzimidazole] was tested, and the Emax was 57.8%.

Work on `CC(C)C[C@@H](C=O)NC(=O)[C@H](CC(C)C)NC(=O)[C@H](CC(C)C)NC(=O)OCc1ccccc1` [Compound 52, Benzyloxycarbonyl-L-leucyl-L-leucyl-L-leucinal] (Cbz-Leu-Leu-Leu-aldehyde) yielded an Emax of 82.8%.

For `Cc1[nH]c(/C=C2\C(=O)Nc3ccc(S(=O)(=O)Cc4c(Cl)cccc4Cl)cc32)c(C)c1C(=O)N1CCC[C@@H]1CN1CCCC1` [Compound 53, 5-(2,6-Dichlorobenzylsulfonyl)-3(Z)-[3,5-dimethyl-4-[2(R)-(pyrrolidin-1-ylmethyl)pyrrolidin-1-ylcarbonyl]-1H-pyrrol-2-ylmethylene]-2,3-dihydro-1H-indol-2-one], the Emax was 95.7%.

Compound `C[C@@H]1COCCN1c1cc(=O)n2c(n1)N(Cc1cncc(Cl)c1)[C@H](C(F)(F)F)CC2` [Compound 54, (8S)-9-[(5-Chloropyridin-3-yl)methyl]-2-[(3R)-3-methylmorpholin-4-yl]-8-(trifluoromethyl)-6,7,8,9-tetrahydro-4H-pyrimido[1,2-a]pyrimidin-4-one] has an Emax of 89%.
